Reference: patent publication US20160279207A1, “TARGETING GDF6 AND BMP SIGNALING FOR ANTI-MELANOMA THERAPY” (University of Massachusetts, priority 2015, published 2016)
Entries after “also recorded” stand apart in the source; their conditions may differ.

What was measured:
A375 melanoma cells [1] = assay: A375 melanoma xenograft in nude mice, tumor volume; type: in vivo, mouse; details: 25 mg/kg DMH1 intraperitoneally every other day, A375 cells in BALB/c nu/nu mice
Description: An art-accepted model to test for an agent's effects on melanoma is that of using immunocompromised (“nude”) mice which are then injected subcutaneously with melanoma cells, and then concomitant with injection of the cells, sometime after injection, and/or after tumor establishment, the test agent is appropriately administered (e.g., intravenously, peritoneally, orally, etc.). Control and treated animals are monitored in part for tumor growth, tumor stabilization, and tumor regression (see for example, Yang et al. 2010. Cancer Res., 70:5518-5527 and Bollag et al. 2010. Nature. 467:596-599).
All animal protocols were approved by the UMMS Institution Animal Care and Use Committee (A-2016, A-2171). Mice were randomly allocated to individual experimental groups. No blinding was done as animal groups were identified by tagging and cage labeling. Animals were excluded, according to pre-established criteria, if the tumor volume reached >1,000 mm^3; if tumor size or location affected the mobility or general health of animal, the animal was euthanized and excluded from the experiment or the complete experiment was terminated. A375 cells stably expressing an EGFP or GDF6 or SMAD1 shRNA and/or empty vector or GDF6-expressing vector or SMAD1DVD-overexpressing vector were subcutaneously injected into the flanks of 6-8-week-old BALB/c nu/nu female mice (Taconic Farms) to produce orthotopic primary tumor. Primary tumor growth was monitored every 3 days with calipers, and the tumor volume was calculated as described previously (C. Gazin, N. Wajapeyee, S. Gobeil, C. M. Virbasius, M. R. Green, An elaborate pathway required for Ras-mediated epigenetic silencing. Nature 449, 1073-1077 (2007)). For GDF6 knockdown, SMAD1 knockdown and epistasis experiments, 1×10^7 live cells were injected. For GDF6 overexpression experiments, 1×10^6 live cells were injected. For GDF6 overexpression and GDF6 knockdowns, a representative of two independent experiments (n=3 animals per experiment) is shown. For DMH1 drug experiments, 1×10^6 live A375 cells were subcutaneously injected in the flanks of BALB/c nu/nu female mice. Beginning on the day cells were injected, mice were injected intraperitoneally with vehicle 12.5% 2-hydroxypropyl-β-cyclodextrin or 25 mg/kg DMH1 in vehicle every other day. The growth of the tumor was monitored as described above. This experiment was repeated twice and the weighted average of both experiments (n=8 total) is represented.

BMP signaling = assay: Western blot of phospho-SMAD1 relative to total SMAD in DMH1-treated A375 cells; type: cell-based, human; details: 10 μM DMH1 vs control media
Description: Protein extracts were prepared as previously described (S. D. Epstein L B, Hunte-McDonough B, harris C A, Cytokines: A pratical approach (Balkwill F R., ed). 81-93 (1991)). Extracts were separated on 12% SDS-PAGE gels. Blots were probed with primary antibodies (GDF6 (Sigma PRS4691; 1:1000), phospho-SMAD1/5/8 (Cell Signaling 13820; 1:1000), SMAD1 (Cell Signaling 9743; 1:500), Total SMAD1/5/8 (Santa Cruz sc-6031-R; 1:1000), FLAG (Sigma F3165, 1:2000), GAPDH (Abcam 8245; 1:2000)) overnight at 4° C., washed five times in TBS plus 0.1% Tween (TBST) and then incubated with the appropriate HRP-conjugated secondary antibody (Jackson Labs) for 1 hour at room temperature. Membranes were washed five times in TBST and visualized on autoradiography film after incubating with ECL reagent (Supersignal West Pico or Supersignal West Femto; Thermo Scientific).

SKMEL28 melanoma cells = assay: Growth curves of SKMEL28 cells by direct cell counting; type: cell-based, human; details: DMH1 vs control
Description: (§1) For growth curves 50,000 live cells were seeded per well in a 6-well tissue culture plate on day 0. The numbers of live cells were calculated every day using an automated cell counter (Nexcelom Bioscience Cellometer Auto T4) following standard procedures. All assays were performed with technical replicates. For clonogenic assays, 3,000 live cells were seeded in a 10 cm tissue culture plate. After 3 weeks, colonies were fixed and stained using bromophenol blue in acetone. ImageJ was used to quantify the number of colonies. In assays with DMH1 treatment, control or DMH1-containing media was replaced every other day. For soft agar assays a 0.5% bottom layer (1:1 with 1% agar and 2X DMEM with 20% FBS) and a 0.3% top layer (1:1 with 0.6% agar and 2× DMEM with 20% FBS) were used. 3,000 live cells per well of a 6-well tissue culture plate were added in the top layer. Media was added initially then replaced every 3 days. After 3 weeks, colonies were stained with nitroblue tetrazolium chloride overnight at 37° C. Once stained, individual wells were photographed, and ImageJ was used to count the number of colonies. All these assays were done in triplicate, and experiments were repeated at least twice. A representative image of each has been shown.

A375 melanoma cells [2] = assay: Clonogenic growth (colony formation) assay; type: cell-based, human; details: A375-EMPTY vs A375-SMAD1DVD, 10 μM DMH1 in 0.1% DMSO
Description: as §1, with “After 3 weeks, colonies were fixed and stained using bromophenol blue in acetone.” left out

A375 melanoma cells [3] = assay: Growth curves of A375 cells by direct cell counting; type: cell-based, human; details: 10 μM DMH1 vs control
Description: as §1

SMILES: CC(C)Oc1ccc(-c2cnc3c(-c4ccnc5ccccc45)cnn3c2)cc1 [DMH1]
- tumor growth (tumor volume over time), DMH1 vs vehicle (A375 melanoma cells [1]): smaller tumors arose and grew more slowly; also recorded: decreased tumorigenicity; also recorded: abrogates melanoma growth in mouse xenografts in vivo
- level of phospho-SMAD1 relative to total SMAD protein (BMP signaling): reduced level of phospho-SMAD1 relative to total SMAD protein
- SKMEL28 melanoma cell growth (growth curves) (SKMEL28 melanoma cells): grew more slowly than did control cells
- colony formation of DMH1-treated cells expressing SMAD1DVD (A375 melanoma cells [2]): reversed by SMAD1DVD
- A375 melanoma cell growth (growth curves) (A375 melanoma cells [3]): grew more slowly than did control cells; also recorded: inhibits A375 melanoma cell growth
